{"source": "patent US20230014151A1", "about": "“COMBINATION ANTIVIRAL THERAPY FOR MEASLES” (The Trustees of Columbia University in the City of New York, priority 2019, published 2023)", "key": {"[1]": {"system": "murine leukemia viruses (MLV)", "conditions": "read-out: IC50 MLV; pseudovirus, TZM-BL cells"}, "[2]": {"system": "vesicular stomatitis virus (VSV)", "conditions": "16 h"}, "[3]": {"system": "BG505 (HIV-1 strain)", "conditions": "read-out: IC50 BG505; pseudovirus, TZM-BL cells"}, "[4]": {"system": "16055 (HIV-1 strain)", "conditions": "read-out: IC50 16055; pseudovirus, TZM-BL cells"}, "[5]": {"system": "MN (HIV-1 strain)", "conditions": "read-out: IC50 MN; pseudovirus, TZM-BL cells"}, "[6]": {"target": "viral glycoproteins (H and F); Nectin-4 (Measles virus, UniProt Q786F3)", "sequence (Q786F3 24-112)": "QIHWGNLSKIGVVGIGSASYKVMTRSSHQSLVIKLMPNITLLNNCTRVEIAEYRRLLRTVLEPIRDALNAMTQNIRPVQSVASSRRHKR", "assay": "beta-galactosidase complementation-based fusion assay, Nectin-4 target cells"}, "[7]": {"system": "B41 (HIV-1 strain)", "conditions": "read-out: IC50 B41; pseudovirus, TZM-BL cells"}, "[8]": {"system": "MeV IC323-EGFP-F L454W", "assay": "organotypic brain cultures (OBC) infected with MeV bearing L454W F", "assay_type": "cell-based, mice"}, "[9]": {"target": "viral glycoproteins (H and F); CD150", "sequence (Q786F3 24-112)": "as above", "sequence (Q786F3 113-550)": "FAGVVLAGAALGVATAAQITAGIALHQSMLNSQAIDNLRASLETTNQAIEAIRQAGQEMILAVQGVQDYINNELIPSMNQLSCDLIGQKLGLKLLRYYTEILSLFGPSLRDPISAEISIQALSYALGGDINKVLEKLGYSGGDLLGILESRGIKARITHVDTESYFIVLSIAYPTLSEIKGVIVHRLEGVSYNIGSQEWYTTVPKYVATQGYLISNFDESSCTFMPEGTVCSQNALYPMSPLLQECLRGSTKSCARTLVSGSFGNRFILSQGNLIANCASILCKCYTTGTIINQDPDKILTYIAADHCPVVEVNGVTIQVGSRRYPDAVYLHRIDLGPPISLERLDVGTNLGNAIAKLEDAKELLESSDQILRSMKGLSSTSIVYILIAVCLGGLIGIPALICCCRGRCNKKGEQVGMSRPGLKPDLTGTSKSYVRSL", "assay": "beta-galactosidase complementation-based fusion assay, CD150 target cells"}, "[10]": {"system": "MeV “WTFb” strain", "assay": "in vivo efficacy, intranasal peptides in MeV-infected cotton rats", "conditions": "intranasal 24 h and 12 h before infection, 5 m/kg dose, 4 days post-infection", "method": "FIGS. 84-93 further describe the invention. […] Intranasal administration of MeV-derived peptides protects cotton rats from MV infection. Cotton rats (n=4) were infected intranasally with MeV “WTFb” strain. Treatment was given intranasally 24 h and 12 h before infection in 100 ul (5 m/kg dose of peptides). The animals were euthanized 4 days post-infection."}, "[11]": {"system": "virus bearing L454W F", "assay": "lethal infection of suckling mice, intranasal peptide", "conditions": "intranasal administration"}, "[12]": {"system": "wt MeV", "conditions": "in vitro, ex vivo; cited from earlier work"}}, "note": "Like-named read-outs stand apart in the source and are kept apart here. Square brackets hold non-standard residues; d marks the D form. Peptide text beside a SMILES is read from it. * marks the point of attachment. Cbz = O=C(OCc1ccccc1)*", "data": [{"smiles": "O=C(CNC(=O)[C@H](Cc1ccccc1)NC(=O)[C@@H](Cc1ccccc1)NC(=O)OCc1ccccc1)NCC(=O)N[C@@H](CO)C(=O)NCC(=O)N[C@@H](CO)C(=O)NCC(=O)N[C@@H](CS)C(=O)O", "note": "[FIP, Z-D-FFG-GSGSG-C (SEQ ID NO. 52)] (Cbz-[dF]FGGSGSGC-OH)", "values": [{"measurement": "IC50", "setting": "[1]", "result": "> 5", "unit": "µM"}, {"measurement": "IC50", "setting": "[2]", "result": "> 5", "unit": "µM"}, {"measurement": "IC50", "setting": "[3]", "result": "> 5", "unit": "µM"}, {"measurement": "IC50", "setting": "[4]", "result": "> 5", "unit": "µM"}, {"measurement": "IC50", "setting": "[5]", "result": "> 5", "unit": "µM"}, {"measurement": "IC90", "setting": "[6]", "result": "> 10", "unit": "µM"}, {"measurement": "IC50", "setting": "[6]; IC50, Table 2 (salient peptides), Nectin-4 target cells", "result": "9.72 ± 2.73", "unit": "µM"}, {"measurement": "IC50", "setting": "[6]; Nectin4 IC50, Table 3 (extended version)", "result": "9.72 ± 2.73", "unit": "µM"}, {"measurement": "IC90", "setting": "[6]; read-out: Nectin4 IC90", "result": "> 10", "unit": "µM"}, {"measurement": "IC50", "setting": "[7]", "result": "> 5", "unit": "µM"}]}, {"smiles": "CC[C@H](C)[C@H](NC(=O)[C@H](C)NC(=O)[C@H](CC(N)=O)NC(=O)CNC(=O)[C@H](CC(C)C)NC(=O)[C@H](CC(N)=O)NC(=O)[C@@H](NC(=O)CNC(=O)[C@@H](NC(=O)[C@H](CC(=O)O)NC(=O)[C@H](CC(C)C)NC(=O)[C@H](CCCNC(=N)N)NC(=O)[C@H](CCC(=O)O)NC(=O)[C@H](CC(C)C)NC(=O)[C@H](CO)NC(=O)[C@@H](NC(=O)[C@@H]1CCCN1C(=O)[C@@H]1CCCN1C(C)=O)[C@@H](C)CC)C(C)C)[C@@H](C)O)C(=O)N[C@@H](C)C(=O)N[C@@H](CCCCN)C(=O)N[C@@H](CC(C)C)C(=O)N[C@@H](CCC(=O)O)C(=O)N[C@@H](CC(=O)O)C(=O)N[C@@H](C)C(=O)N[C@@H](CCCCN)C(=O)N[C@@H](CCC(=O)O)C(=O)N[C@@H](CC(C)C)C(=O)N[C@@H](CC(C)C)C(=O)N[C@@H](CCC(=O)O)C(=O)N[C@@H](CO)C(=O)N[C@@H](CO)C(=O)N[C@@H](CC(=O)O)C(=O)N[C@@H](CCC(N)=O)C(=O)N[C@H](C(=O)N[C@@H](CC(C)C)C(=O)N[C@@H](CCCNC(=N)N)C(=O)NCC(=O)N[C@@H](CO)C(=O)NCC(=O)N[C@@H](CO)C(=O)NCC(=O)N[C@@H](CSC1CC(=O)N(CCCC(=O)NCCOCCOCCOCCOCCC(=O)NCCN(CCNC(=O)CCOCCOCCOCCOCCNC(=O)CCCN2C(=O)CC(SC[C@H](NC(=O)CNC(=O)[C@H](CO)NC(=O)CNC(=O)[C@H](CO)NC(=O)CNC(=O)[C@H](CCCNC(=N)N)NC(=O)[C@H](CC(C)C)NC(=O)[C@@H](NC(=O)[C@H](CCC(N)=O)NC(=O)[C@H](CC(=O)O)NC(=O)[C@H](CO)NC(=O)[C@H](CO)NC(=O)[C@H](CCC(=O)O)NC(=O)[C@H](CC(C)C)NC(=O)[C@H](CC(C)C)NC(=O)[C@H](CCC(=O)O)NC(=O)[C@H](CCCCN)NC(=O)[C@H](C)NC(=O)[C@H](CC(=O)O)NC(=O)[C@H](CCC(=O)O)NC(=O)[C@H](CC(C)C)NC(=O)[C@H](CCCCN)NC(=O)[C@H](C)NC(=O)[C@@H](NC(=O)[C@H](C)NC(=O)[C@H](CC(N)=O)NC(=O)CNC(=O)[C@H](CC(C)C)NC(=O)[C@H](CC(N)=O)NC(=O)[C@@H](NC(=O)CNC(=O)[C@@H](NC(=O)[C@H](CC(=O)O)NC(=O)[C@H](CC(C)C)NC(=O)[C@H](CCCNC(=N)N)NC(=O)[C@H](CCC(=O)O)NC(=O)[C@H](CC(C)C)NC(=O)[C@H](CO)NC(=O)[C@@H](NC(=O)[C@@H]3CCCN3C(=O)[C@@H]3CCCN3C(C)=O)[C@@H](C)CC)C(C)C)[C@@H](C)O)[C@@H](C)CC)[C@@H](C)CC)C(=O)O)C2=O)CCO[C@H]2CC[C@@]3(C)C(=CC[C@H]4[C@@H]5CC[C@H]([C@H](C)CCCC(C)C)[C@@]5(C)CC[C@@H]43)C2)C1=O)C(=O)O)[C@@H](C)CC", "note": "(stereo partly shown) [[HRC450-485-peg4]2-chol]", "values": [{"measurement": "spread of virus in OBC (fluorescence)", "setting": "[8]; 10 nM", "result": "only partially inhibitory"}, {"measurement": "spread of virus in OBC (fluorescence)", "setting": "[8]; 100 nM", "result": "only isolated single infected cells were observed"}, {"measurement": "reduction in the number of MeV N RNA copies", "setting": "[8]; IFNAR1KO OBC, 10 nM, treated post-infection, vs untreated", "result": 4, "unit": "fold"}, {"measurement": "reduction of the viral load (MeV N RNA copies, RT-qPCR)", "setting": "[8]; IFNAR1KO OBC, 100 nM, treated post-infection, vs untreated", "result": 2, "unit": "log"}, {"measurement": "variation of the viral load", "setting": "[8]; IFNAR1KO OBC, concentrations below 10 nM", "result": "No significant variation of the viral load"}, {"measurement": "dissemination of virus in OBC expressing human CD150 (SLAM)", "setting": "[8]; OBC from IFNAR1KO mice expressing human CD150, highest concentration", "result": "blocked dissemination of MeV IC323-EGFP-F L454W at least as well as WT virus"}, {"measurement": "spread of virus in OBC (fluorescence)", "setting": "[8]; either 100 nM or 10 nM, four days after infection", "result": "blocks the spread of MeV-IC323-EGFP-F L454W"}, {"measurement": "IC50", "setting": "[9]", "result": "0.1 ± 0.0651", "unit": "µM"}, {"measurement": "IC90", "setting": "[9]; read-out: CD150 IC90", "result": "0.698 ± 0.0223", "unit": "µM"}, {"measurement": "MeV titration of lung homogenates", "setting": "[10]", "result": "reduces the viral titer compared to the untreated animals"}, {"measurement": "IC50", "setting": "[6]", "result": "0.125 ± 0.175", "unit": "µM"}, {"measurement": "IC90", "setting": "[6]", "result": "0.379 ± 0.3", "unit": "µM"}, {"measurement": "IC90", "setting": "[6]; read-out: Nectin4 IC90", "result": "0.379 ± 0.3", "unit": "µM"}, {"measurement": "protection from lethal infection", "setting": "[11]", "result": "protects suckling mice from lethal infection"}, {"measurement": "blocking of wt MeV infection (previous work)", "setting": "[12]", "result": "blocks infection with wt MeV in vitro, ex vivo and in vivo in cotton rats and mice"}]}]}
